From US20250171433A1, “A1H-BENZO[C][1,2]THIADIAZINE-2,2-DIOXIDES BEARING HETEROCYCLIC LINKERS AS SELECTIVE HISTONE DEACETYLASE 6 INHIBITORS” (Georgetown University, priority 2022, published 2025)
Like-named read-outs stand apart in the source and are kept apart here.

How the values were obtained:
hHDAC6 = target: T1, hHDAC6 (Homo sapiens, UniProt Q9UBN7); experiment: HDAC enzyme activity inhibition assay, HDAC6; type: biochemical; conditions: duplicate, performed by DRC; read-out: potency at hHDAC6
T1 construct: host or cells: baculovirus / Sf9 cells
T1 sequence (Q9UBN7 1-1215): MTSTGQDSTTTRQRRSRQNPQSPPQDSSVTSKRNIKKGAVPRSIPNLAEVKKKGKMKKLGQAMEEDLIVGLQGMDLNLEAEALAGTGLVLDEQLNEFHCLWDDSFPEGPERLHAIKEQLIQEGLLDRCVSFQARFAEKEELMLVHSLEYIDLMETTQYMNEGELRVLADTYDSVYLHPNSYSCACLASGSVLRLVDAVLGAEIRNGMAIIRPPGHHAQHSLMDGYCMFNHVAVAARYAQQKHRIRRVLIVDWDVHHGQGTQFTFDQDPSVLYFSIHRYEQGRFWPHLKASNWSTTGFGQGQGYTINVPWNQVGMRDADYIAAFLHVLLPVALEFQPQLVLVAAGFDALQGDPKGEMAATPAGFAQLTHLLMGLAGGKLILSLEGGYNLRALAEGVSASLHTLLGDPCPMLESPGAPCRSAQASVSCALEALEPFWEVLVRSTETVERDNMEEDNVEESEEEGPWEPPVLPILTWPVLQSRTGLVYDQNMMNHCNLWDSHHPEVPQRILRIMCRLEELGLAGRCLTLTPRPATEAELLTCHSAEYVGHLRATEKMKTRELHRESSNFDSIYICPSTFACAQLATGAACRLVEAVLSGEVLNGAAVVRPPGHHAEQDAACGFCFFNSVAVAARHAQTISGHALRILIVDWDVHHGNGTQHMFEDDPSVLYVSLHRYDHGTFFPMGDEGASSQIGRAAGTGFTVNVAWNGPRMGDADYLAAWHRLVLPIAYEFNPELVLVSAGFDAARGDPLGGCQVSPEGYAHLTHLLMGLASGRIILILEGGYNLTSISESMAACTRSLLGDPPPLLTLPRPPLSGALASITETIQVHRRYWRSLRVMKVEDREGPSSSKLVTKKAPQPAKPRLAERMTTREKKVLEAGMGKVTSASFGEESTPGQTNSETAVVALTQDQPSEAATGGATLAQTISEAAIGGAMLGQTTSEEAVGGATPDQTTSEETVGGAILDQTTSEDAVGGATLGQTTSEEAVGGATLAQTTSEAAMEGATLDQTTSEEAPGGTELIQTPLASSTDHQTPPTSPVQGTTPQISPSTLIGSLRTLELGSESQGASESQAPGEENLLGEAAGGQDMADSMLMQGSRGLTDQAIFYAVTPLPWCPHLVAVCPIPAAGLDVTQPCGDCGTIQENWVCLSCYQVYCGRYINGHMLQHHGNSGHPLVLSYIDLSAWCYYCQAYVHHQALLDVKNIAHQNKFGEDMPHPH
Method: (§1) The effectiveness, or potency, of a present HDAC6I with respect to inhibiting the activity of an HDAC is measured by an IC50 value. The quantitative IC50 value indicates the concentration of a particular compound that is needed to inhibit the activity of an enzyme by 50% in vitro. Stated alternatively, the IC50 value is the half maximal (50%) inhibitory concentration of a compound tested using a specific enzyme, e.g., HDAC, of interest.
(§2) The HDAC1, 2, 4, 5, 6, 7, 8, 9, 10, and 11 assays used isolated recombinant human protein; HDAC3/NcoR2 complex was used for the HDAC3 assay. Substrate for HDAC1, 2, 3, 6, 10, and 11 assays is a fluorogenic peptide from p53 residues 379-382 (RHKKAc); substrate for HDAC8 is fluorogenic diacyl peptide based on residues 379-382 of p53 (RHKAcKAc). Acetyl-Lys(trifluoroacetyl)-AMC substrate was used for HDAC4, 5, 7, and 9 assays. Compounds were dissolved in DMSO and tested in 10-dose IC50 mode with 3-fold serial dilution starting at 30 μM. […]
(§3) All IC50 values are automatically calculated using the GraphPad Prism version 5 and Equation of Sigmoidal dose-response (variable slope): […]
(§4) HDAC Activity Assays: HDAC assay is performed using fluorescently-labeled acetylated substrate, which comprises an acetylated lysine side chain. […] HDACs 1 and 6 were expressed as full length fusion proteins. […]

Mice iv PK = conditions: mouse, in vivo
[1] = Free fraction in human plasma; type: in vitro ADME
Permeability and efflux = type: in vitro ADME
[2] = Free fraction in mouse plasma; type: in vitro ADME
HDAC1 = target: T2, HDAC1 (Homo sapiens, UniProt Q13547); experiment: HDAC enzyme activity inhibition assay, HDAC1; type: biochemical; conditions: DRC
T2 construct: host or cells: baculovirus / Sf9 cells
Method: as §1, §2, §3, §4

[3] = Clearance in mouse microsomes; type: in vitro ADME
[4] = Reported functional activity
other HDAC subtypes = experiment: Inhibition of other HDAC subtypes at a single concentration; type: biochemical, human
Method: The HDAC1, 2, 4, 5, 6, 7, 8, 9, 10, and 11 assays used isolated recombinant human protein; HDAC3/NcoR2 complex was used for the HDAC3 assay. Substrate for HDAC1, 2, 3, 6, 10, and 11 assays is a fluorogenic peptide from p53 residues 379-382 (RHKKAc); substrate for HDAC8 is fluorogenic diacyl peptide based on residues 379-382 of p53 (RHKAcKAc). Acetyl-Lys(trifluoroacetyl)-AMC substrate was used for HDAC4, 5, 7, and 9 assays. Compounds were dissolved in DMSO and tested in 10-dose IC50 mode with 3-fold serial dilution starting at 30 μM. Control compound trichostatin A (TSA) was tested in a 10-dose IC50 mode with 3-fold serial dilution starting at 5 μM. IC50 values were extracted by curve-fitting the dose/response slopes. Assays were performed in duplicate, and IC50 values are an average of data from both experiments.

Kinetic solubility = type: physicochemical
[5] = Oral PK study with brain and sciatic nerve exposure; type: in vivo, mice
[6] = Chemical stability at pH 7.4 and 2; type: physicochemical
[7] = Clearance in human microsomes; type: in vitro ADME
[8] = mouse, plasma, oral PK study, gavage

T2 sequence (Q13547 whole entry): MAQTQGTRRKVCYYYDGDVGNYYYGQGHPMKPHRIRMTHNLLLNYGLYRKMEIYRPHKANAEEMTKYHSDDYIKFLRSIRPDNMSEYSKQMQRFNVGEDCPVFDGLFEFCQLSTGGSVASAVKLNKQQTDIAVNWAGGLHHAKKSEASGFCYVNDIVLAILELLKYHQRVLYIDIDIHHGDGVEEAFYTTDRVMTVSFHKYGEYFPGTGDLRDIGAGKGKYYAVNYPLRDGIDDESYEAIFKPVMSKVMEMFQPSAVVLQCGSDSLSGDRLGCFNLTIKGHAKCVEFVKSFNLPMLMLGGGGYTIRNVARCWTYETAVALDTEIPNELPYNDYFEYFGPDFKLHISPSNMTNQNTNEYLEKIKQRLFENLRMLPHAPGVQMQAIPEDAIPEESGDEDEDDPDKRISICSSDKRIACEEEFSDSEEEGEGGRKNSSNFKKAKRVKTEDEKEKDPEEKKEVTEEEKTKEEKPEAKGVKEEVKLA

With `O=S1(=O)CCc2ccccc2N1Cc1ccc(-c2nnc(C(F)F)o2)cn1` [Compound 1, 1-[[5-[5-(Difluoromethyl)-1,3,4-axadiazol-2-yl)pyridin-2-yl]methyl]-3,4-dihydro-1H-benzo[c][1,2]thiazine-2,2-dioxide] the IC50 (hHDAC6) was 0.029 µM, the clearance (Mice iv PK) was 44.9 mL/min/kg and the “free fraction in human plasma” value [1] was “high”. The efflux (Permeability and efflux) was “low”, the permeability (Permeability and efflux) was “high” and the “free fraction in mouse plasma” value [2] was “high”. For the same molecule, the “selectivity against HDAC1” value (HDAC1) was “full selectivity”, the “clearance in mouse microsomes” value [3] was “higher” and the microsomal CLint ([3]; mouse, compared with set criteria in Schedule B, species not given) was over 50 µL/min/mg. For the same molecule, the reported functional activity [4] was 0.76 µM, the “% inh. at 10 μM versus other HDAC subtypes” value (other HDAC subtypes) was under 20% and the kinetic solubility (Kinetic solubility) was “high”. For the same molecule, the Kp at 1 h ([5]; mouse, brain and plasma, oral, @1 h, read-out: Brain/Plasma ratio) was 0.8, the Kp at 4 h ([5]; mouse, brain and plasma, oral, @4 h, read-out: Brain/Plasma ratio) was 1.2 and the “concentrations detected in the brain and the sciatic nerve” value ([5]; mouse, in vivo) was “moderate”. For the same molecule, the bioavailability ([5]; mouse, plasma, oral PK study) was 14.7%, the half-life ([5]; mouse, plasma, oral PK study) was 2.2 h and the Cmax [5, 8] was 456 ng/mL. For the same molecule, the Tmax [5, 8] was 0.25 h, the MRT ([5]; mouse, plasma, oral PK study, read-out: mean residence time) was 3.14 h and the Kp at 1 h ([5]; mouse, sciatic nerve and plasma, oral, at 1 h, read-out: Sciatic nerve/plasma ratio) was 0.4. For the same molecule, the clearance ([5]; oral PK study) was “medium”, the volume of distribution ([5]; oral PK study) was “medium” and the “chemical stability at pH 2” value ([6]; pH 2) was “chemically stable”. The “chemical stability at pH 7.4” value ([6]; pH 7.4) was “chemically stable” and the “clearance in human microsomes” value [7] was “low”.
